Assay results taken from patent US4349545A, “Novel erythromycin a derivatives” (Roussel Uclaf, priority 1980, dated 1982).
Converted amounts (≈) assume the structure as drawn.

Tests used:
[1] = test system: Streptococcus pyogenes A 561; assay: serial dilution liquid medium MIC, Streptococcus pyogenes A 561; format: cell-based; conditions: A561, 24 hours at 37° C., read-out: minimum inhibiting concentration (MIC)
Experimental: (§1) The method was a serial dilution of liquid medium test wherein a series of tubes were prepared containing the same amount of sterile nutritive medium and increasing amounts of the test product was distributed in each tube. The tubes were then seeded with a bacterial strain and incubated for 24 hours in an oven at 37° C. The degree of inhibition was determined by transillumination to determine the minimum inhibiting concentration (MIC) express in μg/ml and the results are reported in the following Tables.

[2] = test system: Streptococcus faecalis 99 F 74; assay: serial dilution liquid medium MIC, Streptococcus faecalis 99 F 74; format: cell-based; conditions: Enterococcus faecalis, 99F74, 24 hours at 37° C., read-out: minimum inhibiting concentration (MIC)
Experimental: as §1

[3] = test system: Staphylococcus aureus UC 1128; assay: serial dilution liquid medium MIC, Staphylococcus aureus UC 1128 pen-resistant; format: cell-based; conditions: UC1128; Staphylococcus aureus UC 1128 pen-resistant; 24 hours at 37° C.; read-out: minimum inhibiting concentration (MIC)
Experimental: as §1

[4] = test system: Staphylococcus aureus exp. n° 54 146; assay: serial dilution liquid medium MIC, Staphylococcus aureus exp. n° 54 146; format: cell-based; conditions: Staphylococcus aureus exp. 54 146; 24 hours at 37° C.; read-out: minimum inhibiting concentration (MIC)
Experimental: as §1

[5] = test system: Staphylococcus aureus 1061; assay: serial dilution liquid medium MIC, Staphylococcus aureus 1061 pen-sensibles; format: cell-based; conditions: 24 hours at 37° C., read-out: minimum inhibiting concentration (MIC)
Experimental: as §1

[6] = test system: Streptococcus faecalis 5432; assay: serial dilution liquid medium MIC, Streptococcus faecalis 5432; format: cell-based; conditions: Enterococcus faecalis, 24 hours at 37° C., read-out: minimum inhibiting concentration (MIC)
Experimental: as §1

[7] = test system: Streptococcus faecalis 5435; assay: serial dilution liquid medium MIC, Streptococcus faecalis 5435; format: cell-based; conditions: Enterococcus faecalis, 24 hours at 37° C., read-out: minimum inhibiting concentration (MIC)
Experimental: as §1

[8] = test system: Staphylococcus aureus No. 54,146; assay: In vivo activity in mice experimentally infected with Staphylococcus aureus No. 54,146; conditions: groups of 10 mice
Experimental: The test was effected with the compounds of the invention and erythromycin as a reference on groups of 10 mice weighing about 21 g experimentally infected with Staphylococcus aureus No. 54,146 by intraperitoneal administration of 0.5 ml of a 22 hour culture of the said organism in bouillon with a pH of 7 diluted to 1/6 with physiological water. The test compounds were orally administrated to the mice 1,5 and 24 hours after the infection and the mortality on the 8th day was determined.

[9] = dose 0,5mg oral, 1,5 and 24 hours after infection
[10] = dose 0,25mg oral, 1,5 and 24 hours after infection
[11] = dose 0,75mg oral, 1,5 and 24 hours after infection

MIC [1] [µg/mL] | MIC [2] [µg/mL] | MIC [3] [µg/mL] | MIC [4] [µg/mL] | MIC [5] [µg/mL] | MIC [6] [µg/mL] | MIC [7] [µg/mL] | Structure (SMILES) | No. of mice living on the 8th day [8, 9] [mice] | No. of mice living on the 8th day [8, 10] [mice] | No. of mice living on the 8th day [8, 11] [mice] | No. of mice living on the 8th day ([8]; dose 1mg oral, 1,5 and 24 hours after infection) [mice] | No. of mice living on the 8th day ([8]; dose 2mg oral, 1,5 and 24 hours after infection) [mice] | No. of mice living on the 8th day ([8]; dose 1,5mg oral, 1,5 and 24 hours after infection) [mice]
0.05 (≈ 0.0588 µM) | 0.1 (≈ 0.118 µM) | 0.6 (≈ 0.706 µM) | 0.6 (≈ 0.706 µM) | 0.4 (≈ 0.471 µM) | 0.4 (≈ 0.471 µM) | 1 (≈ 1.18 µM) | CC[C@H]1OC(=O)[C@H](C)[C@@H](O[C@H]2C[C@@](C)(OC)[C@@H](O)[C@H](C)O2)[C@H](C)[C@@H](O[C@@H]2O[C@H](C)C[C@H](N(C)C)[C@H]2O)[C@](C)(O)C[C@@H](C)C(=NOCC(O)CN(C)C)[C@H](C)[C@@H](O)[C@]1(C)O (some centres unmarked) [Example 48, 9-[0-(3-dimethylamino-2-hydroxy-propyl)-oxime] of erythromycin] | – | – | – | – | – | –
≤ 0.01 | 0.05 (≈ 0.058 µM) | 0.6 (≈ 0.696 µM) | 0.4 (≈ 0.464 µM) | 0.2 (≈ 0.232 µM) | 0.05 (≈ 0.058 µM) | 0.1 (≈ 0.116 µM) | CC[C@H]1OC(=O)[C@H](C)[C@@H](O[C@H]2C[C@@](C)(OC)[C@@H](O)[C@H](C)O2)[C@H](C)[C@@H](O[C@@H]2O[C@H](C)C[C@H](N(C)C)[C@H]2O)[C@](C)(O)C[C@@H](C)C(=NOC(C)CN(CC)CC)[C@H](C)[C@@H](O)[C@]1(C)O (some centres unmarked) [Example 46, 9-[O-(2-diethylamino-isopropyl)-oxime] of erythromycin] | – | – | – | – | – | –
0.02 (≈ 0.0249 µM) | 0.05 (≈ 0.0623 µM) | 0.4 (≈ 0.499 µM) | 0.4 (≈ 0.499 µM) | 0.2 (≈ 0.249 µM) | 0.1 (≈ 0.125 µM) | 0.4 (≈ 0.499 µM) | CC[C@H]1OC(=O)[C@H](C)[C@@H](O[C@H]2C[C@@](C)(OC)[C@@H](O)[C@H](C)O2)[C@H](C)[C@@H](O[C@@H]2O[C@H](C)C[C@H](N(C)C)[C@H]2O)[C@](C)(O)C[C@@H](C)C(=NOCCC#N)[C@H](C)[C@@H](O)[C@]1(C)O [Example 14, 9-[0-(2-cyanoethyl)-oxime] of erythromycin] | – | – | – | – | – | –
0.05 (≈ 0.0577 µM) | 0.1 (≈ 0.115 µM) | 0.6 (≈ 0.692 µM) | 0.4 (≈ 0.461 µM) | 0.4 (≈ 0.461 µM) | 0.2 (≈ 0.231 µM) | 1 (≈ 1.15 µM) | CCSCC(O)CON=C1[C@H](C)C[C@@](C)(O)[C@H](O[C@@H]2O[C@H](C)C[C@H](N(C)C)[C@H]2O)[C@@H](C)[C@H](O[C@H]2C[C@@](C)(OC)[C@@H](O)[C@H](C)O2)[C@@H](C)C(=O)O[C@H](CC)[C@@](C)(O)[C@H](O)[C@H]1C (some centres unmarked) [Example 16, 9-[0-(3-ethylthio-2-hydroxy-propyl)-oxime] of erythromycin] | – | – | – | – | – | –
0.05 (≈ 0.0574 µM) | 0.2 (≈ 0.23 µM) | 0.6 (≈ 0.689 µM) | 0.6 (≈ 0.689 µM) | 0.4 (≈ 0.459 µM) | 0.2 (≈ 0.23 µM) | 0.4 (≈ 0.459 µM) | CC[C@H]1OC(=O)[C@H](C)[C@@H](O[C@H]2C[C@@](C)(OC)[C@@H](O)[C@H](C)O2)[C@H](C)[C@@H](O[C@@H]2O[C@H](C)C[C@H](N(C)C)[C@H]2O)[C@](C)(O)C[C@@H](C)C(=NOCSc2ccccc2)[C@H](C)[C@@H](O)[C@]1(C)O [Example 28, 9-[0-(phenylthiomethyl)-oxime] of erythromycin] | – | – | – | – | – | –
0.02 (≈ 0.0236 µM) | 0.1 (≈ 0.118 µM) | 1 (≈ 1.18 µM) | 1 (≈ 1.18 µM) | 0.5 (≈ 0.59 µM) | 0.1 (≈ 0.118 µM) | – | CC[C@H]1OC(=O)[C@H](C)[C@@H](O[C@H]2C[C@@](C)(OC)[C@@H](O)[C@H](C)O2)[C@H](C)[C@@H](O[C@@H]2O[C@H](C)C[C@H](N(C)C)[C@H]2O)[C@](C)(O)C[C@@H](C)C(=NOCCN(CC)CC)[C@H](C)[C@@H](O)[C@]1(C)O [Example 31, 9-[0-(2-diethylaminoethyl)-oxime] of erythromycin] | 10 | 4 | – | – | – | –
0.02 (≈ 0.0239 µM) | 0.1 (≈ 0.119 µM) | 0.6 (≈ 0.717 µM) | 0.4 (≈ 0.478 µM) | 0.4 (≈ 0.478 µM) | 0.01 (≈ 0.0119 µM) | 0.4 (≈ 0.478 µM) | CCSCCON=C1[C@H](C)C[C@@](C)(O)[C@H](O[C@@H]2O[C@H](C)C[C@H](N(C)C)[C@H]2O)[C@@H](C)[C@H](O[C@H]2C[C@@](C)(OC)[C@@H](O)[C@H](C)O2)[C@@H](C)C(=O)O[C@H](CC)[C@@](C)(O)[C@H](O)[C@H]1C [Example 13, 9-[0-(2-ethylthioethyl)-oxime] of erythromycin] | – | – | – | – | – | –
0.02 (≈ 0.0228 µM) | 0.1 (≈ 0.114 µM) | 1 (≈ 1.14 µM) | 0.6 (≈ 0.683 µM) | 0.4 (≈ 0.456 µM) | 0.1 (≈ 0.114 µM) | 0.2 (≈ 0.228 µM) | CC[C@H]1OC(=O)[C@H](C)[C@@H](O[C@H]2C[C@@](C)(OC)[C@@H](O)[C@H](C)O2)[C@H](C)[C@@H](O[C@@H]2O[C@H](C)C[C@H](N(C)C)[C@H]2O)[C@](C)(O)C[C@@H](C)C(=NOCOCCN(CC)CC)[C@H](C)[C@@H](O)[C@]1(C)O [Example 23, 9-[0-{(2-diethylaminoethoxy)-methyl}-oxime] of erythromycin] | – | – | – | – | – | –
≤ 0.01 | 0.1 (≈ 0.122 µM) | 0.4 (≈ 0.487 µM) | 0.4 (≈ 0.487 µM) | 0.1 (≈ 0.122 µM) | 0.05 (≈ 0.0608 µM) | 0.2 (≈ 0.243 µM) | CC[C@H]1OC(=O)[C@H](C)[C@@H](O[C@H]2C[C@@](C)(OC)[C@@H](O)[C@H](C)O2)[C@H](C)[C@@H](O[C@@H]2O[C@H](C)C[C@H](N(C)C)[C@H]2O)[C@](C)(O)C[C@@H](C)C(=NOCOCCN)[C@H](C)[C@@H](O)[C@]1(C)O [Example 24, 9-[0-{(2-aminoethoxy}-methyl)-oxime] of erythromycin] | – | – | – | – | – | –
0.05 (≈ 0.0571 µM) | 0.2 (≈ 0.228 µM) | 1 (≈ 1.14 µM) | 1 (≈ 1.14 µM) | 0.5 (≈ 0.571 µM) | 0.2 (≈ 0.228 µM) | – | CC[C@H]1OC(=O)[C@H](C)[C@@H](O[C@H]2C[C@@](C)(OC)[C@@H](O)[C@H](C)O2)[C@H](C)[C@@H](O[C@@H]2O[C@H](C)C[C@H](N(C)C)[C@H]2O)[C@](C)(O)C[C@@H](C)C(=NOCCN(C(C)C)C(C)C)[C@H](C)[C@@H](O)[C@]1(C)O [Example 41, 9-[O-(2-disopropylamino-ethyl)-oxime] of erythromycin] | 10 | 9 | – | – | – | –
≤ 0.01 | 0.05 (≈ 0.0598 µM) | 0.5 (≈ 0.598 µM) | 0.5 (≈ 0.598 µM) | 0.5 (≈ 0.598 µM) | 0.05 (≈ 0.0598 µM) | 0.2 (≈ 0.239 µM) | CC[C@H]1OC(=O)[C@H](C)[C@@H](O[C@H]2C[C@@](C)(OC)[C@@H](O)[C@H](C)O2)[C@H](C)[C@@H](O[C@@H]2O[C@H](C)C[C@H](N(C)C)[C@H]2O)[C@](C)(O)C[C@@H](C)C(=NOCOCCNC)[C@H](C)[C@@H](O)[C@]1(C)O [Example 25, 9-[0-{(2-methylamino-ethoxy}-methyl)-oxime] of erythromycin] | – | – | – | – | – | –
– | – | – | – | – | – | – | CC[C@H]1OC(=O)[C@H](C)[C@@H](O[C@H]2C[C@@](C)(OC)[C@@H](O)[C@H](C)O2)[C@H](C)[C@@H](O[C@@H]2O[C@H](C)C[C@H](N(C)C)[C@H]2O)[C@](C)(O)C[C@@H](C)C(=O)[C@H](C)[C@@H](O)[C@]1(C)O [Erythromycin, erythromycin] | – | – | 5 | 9 | 10 | 9
0.02 (≈ 0.0238 µM) | 0.1 (≈ 0.119 µM) | 0.2 (≈ 0.238 µM) | 0.2 (≈ 0.238 µM) | 0.2 (≈ 0.238 µM) | 0.1 (≈ 0.119 µM) | – | CC[C@H]1OC(=O)[C@H](C)[C@@H](O[C@H]2C[C@@](C)(OC)[C@@H](O)[C@H](C)O2)[C@H](C)[C@@H](O[C@@H]2O[C@H](C)C[C@H](N(C)C)[C@H]2O)[C@](C)(O)C[C@@H](C)C(=NOCOCCCl)[C@H](C)[C@@H](O)[C@]1(C)O [Example 21, 9-[0-{(2-chloroethoxy)-methyl}-oxime] of erythromycin] | 6 | 0 | 10 | – | – | –
